Results: patent US5536850A, “Substance DC114-A1” (Kyowa Hakko Kogyo Co., Ltd., priority 1993, dated 1996)
In brackets after ≈: the same amount, converted by molar mass. Read-outs that look alike come from different tables or passages of the source.

Columns and labels:
HeLaS3 cells = test: Growth inhibition against HeLaS3 cells; assay type: cell-based; conditions: Homo sapiens, HeLa S3, 1 h
Protocol: HeLaS3 cells (ATCC HTB22) were suspended in a medium comprising 10% fetal calf serum, 2 mM glutamine and MEM medium (produced by Nissui Pharmaceutical Co., Ltd.) (hereinafter referred to as medium A) to a concentration of 3×10^4 cells/ml. The cell suspension was put into wells of a 96-well microtiter plate in an amount of 0.1 ml per well. The cells in the plate were cultured at 37° C. for 20 hours in a CO2 -incubator. Subsequently, the test compound appropriately diluted with medium A was added to the wells in an amount of 0.1 ml/well. The cells were further cultured at 37° C. for one hour in the CO2 -incubator, and then the culture supernatant was removed. To the residue was added a medium comprising medium A and 0.02% Neutral Red in an amount of 0.1 ml per well, followed by culturing at 37° C. for one hour in the CO2 -incubator, whereby the cells were stained. After removal of the culture supernatant, the residue was washed once with physiological saline. The pigment was extracted with 0.001 N hydrochloric acid/30% ethanol, and the absorbance at 550 nm was measured by using a microplate reader. The concentration of the test compound at which the growth of the cells is inhibited by 50% (IC50) was calculated by comparing the absorbance of untreated cells with those of the cells treated with the test compound at known concentrations.

Solubility = assay type: physicochemical
[1] = test system: Salmonella typhi ATCC 9992; test: Antibacterial activity, MIC by agar dilution method; assay type: cell-based; conditions: Salmonella enterica, pH 7
Protocol: (§1) The antibacterial activity was determined by the agar dilution method using a medium (pH 7) which comprises 3 g/l Bacto-tryptone (produced by Difco Laboratories), 3 g/l meat extract, 1 g/l yeast extract, 1 g/l glucose and 16 g/l agar.

[2] = test system: Candida albicans ATCC 10231; test: as above; assay type: cell-based
Protocol: as §1

[3] = test system: Shigella sonnei ATCC 9290; test: as above; assay type: cell-based; conditions: ATCC9290, pH 7
Protocol: as §1

Escherichia coli ATCC 26 = test: as above; assay type: cell-based; conditions: ATCC26, pH 7
Protocol: as §1

[4] = test system: Staphylococcus aureus ATCC 6538P; test: as above; assay type: cell-based; conditions: ATCC6538P, pH 7
Protocol: as §1

[5] = test system: Bacillus subtilis No. 10707; test: as above; assay type: cell-based
Protocol: as §1

[6] = test system: Proteus vulgaris ATCC 6897; test: as above; assay type: cell-based
Protocol: as §1

[7] = test system: Klebsiella pneumoniae ATCC 10031; test: as above; assay type: cell-based
Protocol: as §1

[8] = test system: Pseudomonas aeruginosa Bin H No. 1; test: as above; assay type: cell-based; conditions: pH 7
Protocol: as §1

[9] = test system: Enterococcus faecium ATCC 10541; test: as above; assay type: cell-based
Protocol: as §1

## Cc1cc2c(O)c3c(cc2c2oc(C4(C)OC4C4CO4)cc(=O)c12)C(=O)C1OC1(C1CC(=O)C(O)C(C)O1)C3=O (centres unmarked) [DC114-A1]
HeLaS3 cells
  IC50: 12 nM
Solubility; acetone
  Solubility: Soluble
Solubility; chloroform
  Solubility: sparingly soluble
Solubility; dimethylsulfoxide (DMSO)
  Solubility: Soluble
Solubility; ethyl acetate
  Solubility: sparingly soluble
Solubility; methanol
  Solubility: Soluble
Solubility; n-hexane
  Solubility: sparingly soluble
Solubility; water
  Solubility: sparingly soluble
[1]
  MIC: 5.21 µg/mL (≈ 9.5 µM)
[2]; Candida albicans, ATCC10231, pH 7
  MIC: 5.21 µg/mL (≈ 9.5 µM)
[3]
  MIC: 5.21 µg/mL (≈ 9.5 µM)
Escherichia coli ATCC 26
  MIC: 5.21 µg/mL (≈ 9.5 µM)
[4]; Staphylococcus aureus
  MIC: 0.04 µg/mL (≈ 0.0729 µM)
[5]; Bacillus subtilis, NO.10707, pH 7
  MIC: 0.33 µg/mL (≈ 0.602 µM)
[6]; Proteus vulgaris, ATCC6897, pH 7
  MIC: 2.6 µg/mL (≈ 4.74 µM)
[7]; Klebsiella pneumoniae, ATCC10031, pH 7
  MIC: 5.21 µg/mL (≈ 9.5 µM)
[8]; Pseudomonas aeruginosa
  MIC: 5.21 µg/mL (≈ 9.5 µM)
[9]; Enterococcus faecium, ATCC10541, pH 7
  MIC: 0.16 µg/mL (≈ 0.292 µM)

## Cc1cc2c(O)c3c(cc2c2oc(C4(C)OC4C4CO4)cc(=O)c12)C(=O)C1OC1(C1CC(=O)C(O)C(C)O1)C3O (centres unmarked) [DC114-C, reference compound]
HeLaS3 cells; HeLaS3 cells, one hour with compound, 37° C., Neutral Red, absorbance at 550 nm, read-out: IC50
  IC50: 21 nM
[1]
  MIC: 20.8 µg/mL (≈ 37.8 µM)
[2]; ATCC10231, Candida albicans ATCC 10231, agar dilution, pH 7, read-out: MIC
  MIC: > 83.3 µg/mL
[3]
  MIC: 20.8 µg/mL (≈ 37.8 µM)
Escherichia coli ATCC 26
  MIC: 20.8 µg/mL (≈ 37.8 µM)
[4]; Staphylococcus aureus ATCC 6538P, agar dilution, read-out: MIC
  MIC: 0.16 µg/mL (≈ 0.291 µM)
[5]; Bacillus subtilis No. 10707, agar dilution, pH 7, read-out: MIC
  MIC: 0.33 µg/mL (≈ 0.599 µM)
[6]; ATCC6897, Proteus vulgaris ATCC 6897, agar dilution, pH 7, read-out: MIC
  MIC: 5.21 µg/mL (≈ 9.46 µM)
[7]; ATCC10031, Klebsiella pneumoniae ATCC 10031, agar dilution, pH 7, read-out: MIC
  MIC: 5.21 µg/mL (≈ 9.46 µM)
[8]; Pseudomonas aeruginosa Bin H No. 1, agar dilution, read-out: MIC
  MIC: 41.7 µg/mL (≈ 75.7 µM)
[9]; ATCC10541, Enterococcus faecium ATCC 10541, agar dilution, pH 7, read-out: MIC
  MIC: 0.16 µg/mL (≈ 0.291 µM)
